Measurements as given in US20050008639A1, “Methods of modulating homing of T cell by interruption of chemokine/chemokine receptor signaling” (priority 2003, published 2005).
“Also recorded” adds a separate entry of the source.

How the values were obtained:
[1] = tested on: islet cells / aortal endothelial cells; assay: Chromium release cytotoxicity assay with IS-CD8+ effector cells; type: cell-based, mouse; conditions: for killing of endothelial cells isolated from NOD aorta by IS-CD8+ cells: 0.1 μM exogenous peptide
Procedure: Chromium release cytotoxicity assay—Pancreatic islets or monolayers of cultured aortal endothelial cells were dispersed into single-cell suspension by incubation in cell-dissociation buffer (Sigma), labeled with 100 μCi of Na2^51CrO4 (ICN Pharmaceuticals, Costa Mesa, Calif.) in 200 μl of complete Click's medium containing 5% FCS for 2 h at 37° C., washed three times, and co-cultured for 8-12 hours in 96-well plates (10^4 targets per well in 200 μl of Click's medium with 5% FCS) with effector IS CD8^+ cells at different effector-to-target ratios with different concentrations of InsB^15-23 peptide. To confirm the cytotoxic potential of IS-CD8^+ cells, labeled P815 mastocytoma (H2^d)cells were loaded with different concentrations of InsB^15-23 peptide and used as targets in the 4 hrs cytotoxicity assay. Specific cytotoxicity was based on the measurement of ^51Cr release in 100 μl aliquots of cell-free supernatant using a gamma-counter (Wallac, Turku, Finland) and calculated using the formula: Specific Cytotoxicity (%)=[(Experimental Release−Spontaneous Release)/(Maximum Release−Spontaneous Release)]×100%.

[2] = tested on: IS-CD8^+ cells adhesion to aortal endothelium from NOD mice; assay: Parallel plate flow chamber adhesion assay under shear stress; type: cell-based, mouse
Procedure: Primary vascular endothelium cell culture—Isolation and culture of vascular endothelium from mouse aorta was performed as described (16). Briefly, neutralized collagen extracellular matrix was aliquoted into 24-well plates, allowed to gel at 37° C. for 60 min, and equilibrated overnight with complete endothelial cell medium consisting of complete Click's medium with 20% FCS, and 50 μg/ml of Endothelial Cell Growth Supplement (Becton-Dickinson). The segments of thoracic aorta from adult NOD mice were placed endothelial-side down onto the collagen gel. Thirty-six hours later, 1 ml of complete endothelial cell medium was carefully added. After 3-5 days, the collagen gel was digested with a 0.3% collagenase H (Sigma) solution and the released cells were transferred to a T25 tissue culture flask. After reaching confluence, cells were detached by incubation with cell-dissociation buffer (Sigma), and split at a 1:3 ratio. Passage 2 to 5 cells were used for the experiments.
Parallel Plate Flow Chamber and Adhesion Assay—Aortal endothelial cells were plated on 35 mm Costar tissue culture dishes and allowed to reach confluence. The cells were then treated for 2 -3 hrs with 100 μM of InsB^15-23 or LLO^91-99 peptides in complete endothelial cell medium. In some experiments anti-K^d (SF 1-1.1) blocking mAbs were added for 20 min before the adhesion assay. The adhesion of IS-CD8^+ cells under shear stress was examined with a parallel plate flow chamber obtained from Glycotech (Rockville, Md.) following the manufacturer's instructions and as previously described (17-19). A flow chamber with a 5-mm-wide gasket was used. Negative flow pressure was generated and controlled with an automated syringe pump (Braintree Scientific, Quincy, Mass.). IS-CD8^+ cells were labeled with CFSE as described above, pretreated in some experiments with 100 ng/ml of mouse recombinant SLC (R&D Systems) in Click's medium for 30 min, and injected at a concentration of 3×10^6/ml into the flow chamber. After IS-CD8^+ cells were allowed to settle on the plate for the indicated length of time, the flow rate was increased stepwise every 10 s in increments of […] (˜4 dynes/cm^2 shear stress) to a maximum of 7.7 ml/min (corresponding to ˜24 dynes/cm^2). Lymphocyte adhesion was visualized with a Leica inverted fluorescent microscope and recorded using a Spot-RT digital camera (Diagnostic Instruments, Sterling Heights, Mich.). Images were converted into digital movies and analyzed using Metamorph software (Universal Imaging Corp., Downingtown, Pa.). Labeled IS-CD8^+ cells were counted in frames separated by equal time intervals from the start of the stress. Adhesion of cells in each frame was determined as a fraction (%) of the initial number of cells in the frame preceding the start of flow.

[3] = tested on: G-protein-coupled chemokine receptors; assay: Homing of PTx-treated DiI-labeled IS-CD8+ cells after injection into NOD mice; type: in vivo, mouse
Procedure: Fluorescent tracing and morphometric analysis—For trafficking studies, IS-CD8^+ and control T cells were incubated at 10^7 cells /ml for 30 min at 37° C. in the dark in complete medium containing 5% FCS and 0.0075 mg/ml of fluorescent dye didodecyltetramethylindocarbocyanine perchlorate (DiI) (Molecular Probes, Eugene, Oreg.), then washed 3 times with PBS. For analysis of short-term proliferation and adhesion studies IS-CD8^+ cells were stained in vitro with fluorescent dye carboxyfluorescein diacetate succinimidyl ester (CFSE) (Molecular Probes, Eugene, Oreg.) as described (12). 10^7 of labeled IS-CD8^+ cells were injected i.v. into irradiated (725 Rad, 24 h in advance) animals. Mice were sacrificed at time points indicated, and their spleens, pancreata, lymph nodes, peripheral blood and lungs were removed, lymphocytes were isolated as described (5), stained with allophycocyanin-conjugated anti-CD8 (53-6.7) antibody (BD Pharmingen), and subjected to FACS analysis. Alternatively, organs were fixed in 0.1 M periodate-lysine-paraformaldehyde phosphate buffer, sucrose-saturated, and freeze-molded in OCT compound (Sakura Finetek Inc., Torrance, Calif.). […] Cells were counted within areas relevant to a given islet (see FIG. 1 for representative image). […]

IS-CD8^+ cells = assay: PTx-treated IS-CD8+ cells cultured in vitro (viability, peptide response); type: cell-based, mouse; conditions: 24 hrs after treatment (not shown)
Procedure: Treatment with pertussis toxin (PTx)—For treatment with PTx, IS-CD8^+ cells were harvested, resuspended at 10^7 cells/ml in complete medium containing 100 ng/ml of PTx (Sigma) and incubated for 2 h at 37° C. The final 30 min of incubation were combined with DiI-labeling. Treated cells were washed and injected into irradiated hosts or cultured under standard conditions in vitro.

Molecule: LLO^91-99 peptide: control K^d-binding listeriolysin-derived peptide (GYKDGNEYI; UniProt P13128 91-99, looked up, fragment)
- killing of endothelial cells isolated from NOD aorta by IS-CD8+ cells [1]: no effect

Molecule: LYLVCGERG [InsB^15-23 peptide, synthetic insulin B chain peptide]
- adhesion of the T cells to endothelial monolayers ([2]; monolayers pre-cultivated with 100 μM peptide, no SLC, FIG. 7A): increased adhesion
- contact time with endothelial cells prior to start of flow needed for adhesion significantly different from no-peptide control ([2]; peptide-treated monolayers, no SLC): 300 s
- killing of endothelial cells isolated from NOD aorta by IS-CD8+ cells [1]: killed
- lysis of islet β cells from H2k/d (C3D2) mice by IS-CD8+ cells ([1]; peptide added exogenously, 50:1 effector-to-target ratio): restored

Molecule: pertussis toxin [PTx]
- distribution of PTx-treated IS-CD8+ cells in the spleen ([3]; NOD mice, vs untreated cells): avoided T cell zones
- homing of PTx-treated IS-CD8+ cells to the pancreatic islets ([3]; cells treated in vitro with 100 ng/ml PTx for 2 h, injected into NOD mice, 24 hrs after injection): abolishes; also recorded: practically absent from the islets
- response of PTx-treated IS-CD8+ cells to InsB15-23 peptide stimulation (IS-CD8^+ cells): responded normally
- viability of IS-CD8+ cells treated with PTx (IS-CD8^+ cells): did not lose their viability

B1: SLC: mouse recombinant SLC (R&D Systems), chemokine CCL21 (protein, UniProt P84444 24-133, looked up)
C-C motif chemokine 21a: SDGGGQDCCLKYSQKKIPYSIVRGYRKQEPSLGCPIPAILFSPRKHSKPELCANPEEGWVQNLMRRLDQPPAPGKQSPGCRKNRGTSKSGKKGKGSKGCKRTEQTQPSRG
- time necessary for adhesion ([2]; T cells pre-treated with 100 ng/ml SLC, endothelium with InsB15-23 peptide): 90 s
- baseline adhesion in the absence of specific peptide ([2]; T cells pre-treated with SLC): increased
- fraction of adherent cells ([2]; T cells pre-treated with SLC vs not exposed to SLC): larger
